# In PubChem BioAssay (NCI):
#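 Dose response: 5 concentrations. Exposure: 48 h. Format: 96-well plates. Endpoint: linear interpolation; highest concentration if not reached. GI50 is the concentration that inhibits growth by half. TGI is the concentration that stops growth completely.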
# Key:
# Assay in all cases: NCI tumour cell line growth inhibition, 48 h
# [1] = system: SN12C renal
# [2] = system: EKVX NSCLC
# [3] = system: SF-268 CNS
# [4] = system: UO-31 renal
# [5] = system: HL-60(TB) leukemia
# [6] = system: SNB-19 CNS
# [7] = system: CAKI-1 renal
# [8] = system: HT29 colon
# [9] = system: ACHN renal
# [10] = system: HCT-15 colon
# [11] = system: MDA-MB-435
# [12] = system: SK-MEL-5 melanoma
# [13] = system: IGROV1 ovarian
# [14] = system: SF-295 CNS
# [15] = system: OVCAR-8 ovarian
# [16] = system: A498 renal
# [17] = system: TK-10 renal
# [18] = system: HS 578T breast
# [19] = system: CCRF-CEM leukemia
# [20] = system: RPMI-8226 leukemia
# [21] = system: SF-539 CNS
# [22] = system: OVCAR-5 ovarian
# [23] = system: SK-OV-3 ovarian
# [24] = system: BT-549 breast
# [25] = system: COLO 205 colon
# [26] = system: SK-MEL-2 melanoma
# [27] = system: MCF7 breast
# [28] = system: K-562 leukemia
# [29] = system: HCT-116 colon
# [30] = system: MALME-3M melanoma
# [31] = system: HCC-2998 colon
# [32] = system: UACC-257 melanoma
# [33] = system: NCI/ADR-RES ovarian
# [34] = system: UACC-62 melanoma
# [35] = system: OVCAR-4 ovarian
# [36] = system: PC-3 prostate
# [37] = system: NCI-H23 lung
# [38] = system: A549 NSCLC
# [39] = system: LOX IMVI melanoma
# [40] = system: SW-620 colon
# [41] = system: HOP-92 NSCLC
# [42] = system: HOP-62 NSCLC
# [43] = system: SNB-75 CNS
# [44] = system: SR leukemia
# [45] = system: M14 melanoma
# [46] = system: OVCAR-3 ovarian
# [47] = system: NCI-H460 lung
# [48] = system: MDA-MB-231 breast
# [49] = system: MOLT-4 leukemia
# [50] = system: 786-0 renal
# [51] = system: U251 CNS
# [52] = system: RXF 393 renal
# [53] = system: DU-145 prostate
# [54] = system: KM12 colon
# [55] = system: SK-MEL-28 melanoma
# [56] = system: NCI-H226 lung
# [57] = system: NCI-H522 lung
smiles,measurement,setting,value
N=c1c2ccccc2nc2oc3ccccc3n12,TGI,[1],> 100000 nM
same,TGI,[2],29900 nM
same,TGI,[3],28000 nM
same,TGI,[4],> 100000 nM
same,TGI,[5],> 100000 nM
same,TGI,[6],> 100000 nM
same,TGI,[7],> 100000 nM
same,TGI,[8],> 100000 nM
same,TGI,[9],> 100000 nM
same,TGI,[10],> 100000 nM
same,TGI,[11],> 100000 nM
same,TGI,[12],69500 nM
same,TGI,[13],> 100000 nM
same,TGI,[14],> 100000 nM
same,TGI,[15],> 100000 nM
same,TGI,[16],> 100000 nM
same,TGI,[17],87300 nM
same,TGI,[18],60300 nM
same,TGI,[19],> 100000 nM
same,TGI,[20],> 100000 nM
same,TGI,[21],> 100000 nM
same,TGI,[22],> 100000 nM
same,TGI,[23],> 100000 nM
same,TGI,[24],> 100000 nM
same,TGI,[25],> 100000 nM
same,TGI,[26],> 100000 nM
same,TGI,[27],> 100000 nM
same,TGI,[28],> 100000 nM
same,TGI,[29],> 100000 nM
same,TGI,[30],> 100000 nM
same,TGI,[31],> 100000 nM
same,TGI,[32],> 100000 nM
same,TGI,[33],> 100000 nM
same,TGI,[34],> 100000 nM
same,TGI,[35],61400 nM
same,TGI,[36],> 100000 nM
same,TGI,[37],> 100000 nM
same,TGI,[38],> 100000 nM
same,TGI,[39],> 100000 nM
same,TGI,[40],> 100000 nM
same,TGI,[41],80600 nM
same,TGI,[42],88200 nM
O=c1[nH]nc(NCCc2ccccc2)c2nnn(Cc3ccccc3)c12,TGI,[1],> 100000 nM
same,TGI,[2],> 100000 nM
same,TGI,[3],> 100000 nM
same,TGI,[4],> 100000 nM
same,TGI,[5],> 100000 nM
same,TGI,[43],> 100000 nM
same,TGI,[6],> 100000 nM
same,TGI,[7],> 100000 nM
same,TGI,[8],> 100000 nM
same,TGI,[44],> 100000 nM
same,TGI,[9],> 100000 nM
same,TGI,[45],> 100000 nM
same,TGI,[10],> 100000 nM
same,TGI,[11],> 100000 nM
same,TGI,[12],> 100000 nM
same,TGI,[46],> 100000 nM
same,TGI,[14],> 100000 nM
same,TGI,[47],> 100000 nM
same,TGI,[48],> 100000 nM
same,TGI,[15],> 100000 nM
same,TGI,[17],> 100000 nM
same,TGI,[19],> 100000 nM
same,TGI,[20],> 100000 nM
same,TGI,[49],> 100000 nM
same,TGI,[22],> 100000 nM
same,TGI,[50],> 100000 nM
same,TGI,[24],> 100000 nM
same,TGI,[25],> 100000 nM
same,TGI,[26],> 100000 nM
same,TGI,[27],> 100000 nM
same,TGI,[28],> 100000 nM
same,TGI,[29],> 100000 nM
same,TGI,[30],> 100000 nM
same,TGI,[51],> 100000 nM
same,TGI,[31],> 100000 nM
same,TGI,[52],> 100000 nM
same,TGI,[32],> 100000 nM
same,TGI,[33],> 100000 nM
same,TGI,[35],> 100000 nM
same,TGI,[53],> 100000 nM
same,TGI,[54],> 100000 nM
same,TGI,[36],> 100000 nM
same,TGI,[37],> 100000 nM
same,TGI,[55],> 100000 nM
same,TGI,[38],> 100000 nM
same,TGI,[39],> 100000 nM
same,TGI,[42],> 100000 nM
CCCCCCCCCOc1c(OC)cc(C2CC(=O)Nc3c2c(C)nn3-c2nc3ccccc3[nH]2)cc1OC (stereo unspecified),GI50,[2],981 nM
same,TGI,[2],2320 nM
same,GI50,[3],1040 nM
same,TGI,[3],2570 nM
same,GI50,[4],679 nM
same,TGI,[4],1320 nM
same,GI50,[5],1580 nM
same,TGI,[5],4450 nM
same,GI50,[43],670 nM
same,TGI,[43],1550 nM
same,GI50,[7],917 nM
same,TGI,[7],1810 nM
same,GI50,[8],1640 nM
same,TGI,[8],> 50000 nM
same,GI50,[44],1570 nM
same,TGI,[44],6510 nM
same,GI50,[9],1130 nM
same,TGI,[9],2790 nM
same,GI50,[10],1050 nM
same,TGI,[10],2460 nM
same,GI50,[11],982 nM
same,TGI,[11],1990 nM
same,GI50,[12],871 nM
same,TGI,[12],1560 nM
same,GI50,[13],890 nM
same,TGI,[13],1770 nM
same,GI50,[46],1180 nM
same,TGI,[46],2890 nM
same,GI50,[14],816 nM
same,TGI,[14],1740 nM
same,GI50,[47],928 nM
same,TGI,[47],1800 nM
same,GI50,[48],975 nM
same,TGI,[48],1870 nM
same,GI50,[15],1710 nM
same,TGI,[15],7280 nM
same,GI50,[17],1270 nM
same,TGI,[17],3830 nM
same,GI50,[18],622 nM
same,TGI,[18],1970 nM
same,GI50,[56],939 nM
same,TGI,[56],1840 nM
same,GI50,[19],1720 nM
same,TGI,[19],> 50000 nM
same,GI50,[20],1460 nM
same,TGI,[20],4290 nM
same,GI50,[49],1340 nM
same,TGI,[49],3250 nM
same,GI50,[21],851 nM
same,TGI,[21],1650 nM
same,GI50,[22],881 nM
same,TGI,[22],1860 nM
same,GI50,[57],1010 nM
same,TGI,[57],2400 nM
same,GI50,[23],1060 nM
same,TGI,[23],2090 nM
same,GI50,[25],1730 nM
same,TGI,[25],> 50000 nM
same,GI50,[26],1410 nM
same,TGI,[26],4310 nM
same,GI50,[27],1590 nM
same,TGI,[27],> 50000 nM
same,GI50,[28],1810 nM
same,TGI,[28],> 50000 nM
same,GI50,[29],1780 nM
same,TGI,[29],> 50000 nM
same,GI50,[30],914 nM
same,TGI,[30],1920 nM
same,GI50,[31],1620 nM
same,TGI,[31],> 50000 nM
same,GI50,[32],1470 nM
same,TGI,[32],> 50000 nM
same,GI50,[33],1310 nM
same,TGI,[33],3740 nM
same,GI50,[53],1790 nM
same,TGI,[53],> 50000 nM
same,GI50,[54],1170 nM
same,TGI,[54],3080 nM
same,GI50,[37],904 nM
same,TGI,[37],1830 nM
same,GI50,[55],897 nM
same,TGI,[55],1810 nM
same,GI50,[38],1080 nM
same,TGI,[38],2350 nM
same,GI50,[39],913 nM
same,TGI,[39],1670 nM
same,GI50,[40],1000 nM
same,TGI,[40],2170 nM
same,GI50,[41],955 nM
same,TGI,[41],2460 nM
same,GI50,[42],974 nM
same,TGI,[42],2110 nM
